# Assay results as given in patent US20220168325A1, “METHODS TO PROMOTE CEREBRAL BLOOD FLOW IN THE BRAIN” (THE UNIVERSITY OF VERMONT, priority 2019, published 2022).
# Where a name gives a salt, the structure may show the parent alone. Read-outs that look alike come from different tables or passages of the source.
# T1: Kir2.1 channel (Mus musculus, UniProt P35561)
# T1 sequence (P35561 1-428): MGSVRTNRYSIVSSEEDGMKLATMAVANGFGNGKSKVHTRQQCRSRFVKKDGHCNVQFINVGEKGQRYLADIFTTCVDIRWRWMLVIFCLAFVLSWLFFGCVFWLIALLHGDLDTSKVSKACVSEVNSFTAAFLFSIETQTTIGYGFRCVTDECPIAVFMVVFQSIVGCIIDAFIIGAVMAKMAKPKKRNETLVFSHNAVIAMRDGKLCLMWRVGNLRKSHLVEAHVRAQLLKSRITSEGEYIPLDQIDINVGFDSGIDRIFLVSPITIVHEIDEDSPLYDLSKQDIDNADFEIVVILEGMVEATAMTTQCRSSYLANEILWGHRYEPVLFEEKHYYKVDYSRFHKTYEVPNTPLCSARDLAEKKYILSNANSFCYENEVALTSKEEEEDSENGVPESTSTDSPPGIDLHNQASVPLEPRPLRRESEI
# B1: TIMP3: recombinant soluble TIMP3, matrix metalloproteinase inhibitor (protein, UniProt P35625 24-211, looked up)
# Metalloproteinase inhibitor 3: CTCSPSHPQDAFCNSDIVIRAKVVGKKLVKEGPFGTLVYTIKQMKMYRGFTKMPHVQYIHTEASESLCGLKLEVNKYQYLLTGRVYDGKMYTGLCNFVERWDQLTLSQRKGLNYRYHLGCNCKIKSCYYLPCFVTSKNECLWTDMLSNFGYPGYQSKHYACIRQKGGYCSWYRGWAPPDKSIINATDP
# Columns and labels:
# functional hyperemia = test: Whisker stimulation-induced functional hyperemia in vivo (laser Doppler flowmetry, somatosensory cortex); parameters: species or system TgNotch3^WT and TgNotch3^R169C mice; settings: for CBF responses to whisker stimulation: 20 nM HB-EGF perfused over cranial window
# Kir2.1 channel [1] = target: T1, Kir2.1 channel; test: Patch-clamp Ba2+-sensitive Kir2.1 current in cECs from transgenic mice; assay type: cell-based, TgNotch3^WT and TgNotch3^R169C mice; parameters: freshly isolated capillary endothelial cells from TgNotch3^WT and TgNotch3^R169C brains; endogenous in cells; host or cells: freshly isolated brain capillary endothelial cells from TgNotch3^WT and TgNotch3^R169C mice (FVB/N background); settings: HB-EGF (30 ng/ml, 20 minutes)
# [2] = test system: capillary-to-arteriole electrical signaling; test: Ex vivo CaPA preparation from transgenic mice: arteriolar tone and dilation to capillary 10 mM K+; settings: for Arteriolar dilation in response to capillary stimulation with 10 mM K+: 1 mM 4-AP, 30 ng/mL HB-EGF bath, or exogenous PIP2 bath; for Myogenic tone of arteriolar segment: 1 mM 4-AP or 30 ng/mL HB-EGF
# Kir2.1 channel [3] = target: T1, Kir2.1 channel; test: Patch-clamp recording of Kir2.1 currents in freshly isolated brain capillary endothelial cells (cECs); settings: for Effect of simultaneous PKC and IP3R/Ca2+ block on PGE2-mediated suppression of Kir2.1 currents: 1 μM Gö6976 + 30 μM CPA bath-applied + 5.4 mM BAPTA dialyzed together; for Effect of simultaneous PKC and IP3R/Ca2+ block on PGE2-mediated suppression of Kir2.1 currents / Effect on PGE2-induced reduction of Kir2.1 current: PGE2 2 μM, 0 mM Mg-ATP; for Effect on PGE2-induced reduction of Kir2.1 current: diC8-PIP2 10 μM dialyzed, U73122 10 μM bath, Gö6976 1 μM bath, BAPTA 5.4 mM dialyzed; for Decline of Kir2.1 currents over 15 min: in pipette: 1 mM Mg-ATP, 1 mM Mg-ATP-γ-S, or 10 μM diC8-PIP2 with 0 mM Mg-ATP
# [4] = test system: K+-evoked capillary hyperemia; test: In vivo two-photon imaging of K+-evoked capillary RBC flux through cranial window; parameters: species or system C57BL/6J mouse; settings: 0-mM Ca2+ solution containing 200 μM diltiazem on cranial surface, end of experiment
# [5] = cECs dialyzed with 1 mM Mg-ATP, PKC, PKG, PKA inhibitors
# [6] = dialyzed cECs, 1 mM Mg-ATP, 1 μM Gö6976, 10 μM Rp-8-Br-PET-cGMPS, 1 μM H-89
# [7] = conventional whole-cell, dialyzed cECs
molecule,measurement,setting,value
"HB-EGF: heparin-binding epidermal growth factor-like growth factor, EGFR ligand",CBF responses to whisker stimulation,functional hyperemia; CADASIL model (TgNotch3^R169C),restored CBF responses to whisker stimulation in CADASIL model to control levels
same,CBF responses to whisker stimulation,functional hyperemia; control mice (TgNotch3^WT),no significant effect
same,Kir2.1 current density,Kir2.1 channel [1]; TgNotch3^R169C cECs,restored it
same,Kir2.1 current density,Kir2.1 channel [1]; TgNotch3^WT cECs,had no effect
same,Upstream arteriole response to 10 mM K+ on capillaries,"[2]; CaPA from endothelial specific Kir2.1^-/- (Kir channel deficient) mice, HB-EGF or soluble PIP2 present",without effect
same,Time after restoration of myogenic tone until dilation to capillary K+ appeared,"[2]; HB-EGF 30 ng/mL, TgNotch3^R169C CaPA",17 ± 0.5 min
same,Arteriolar dilation in response to capillary stimulation with 10 mM K+,[2]; TgNotch3^R169C CaPA,gradually increased to the amplitude observed in preparations from the control group
same,Myogenic tone of arteriolar segment,[2]; TgNotch3^R169C,also restored myogenic tone
same,Arteriolar segment diameter,"[2]; bath HB-EGF 30 ng/mL, TgNotch3^R169C CaPA",rapid and sustained constriction
"O=C(O)CN(CC(=O)O)c1ccccc1OCCOc1ccccc1N(CC(=O)O)CC(=O)O [BAPTA, 1,2-bis(2-aminophenoxy)ethane-N,N,N′,N′-tetraacetic acid]",Effect of simultaneous PKC and IP3R/Ca2+ block on PGE2-mediated suppression of Kir2.1 currents,Kir2.1 channel [3],lack of an effect
same,Effect on PGE2-induced reduction of Kir2.1 current,Kir2.1 channel [3]; dialyzed cECs,no effect
Cl.Cl.O=S(=O)(NCCNC/C=C/c1ccc(Br)cc1)c1cccc2cnccc12 [H-89 dihydrochloride],Effect on peak Kir2.1 current densities at -140 mV,Kir2.1 channel [3]; [5],absence of an effect
same,Effect on Mg-ATP-mediated maintenance of Kir2.1 currents over 15 min,Kir2.1 channel [3]; [6],unaltered
Nc1ccncc1 [4-aminopyridine],Arteriolar dilation in response to capillary stimulation with 10 mM K+,[2]; TgNotch3^R169C CaPA,did not restore arteriolar dilation
same,Myogenic tone of arteriolar segment,[2]; TgNotch3^R169C,restores myogenic tone
"Cn1c2ccccc2c2c3c(c4c5ccccc5n(CCC#N)c4c21)CNC3=O [Gö6976, 12-(2-cyanoethyl)-6,7,12,13-tetrahydro-13-methyl-5-oxo-5H-indolo(2,3-a)pyrrolo(3,4-c)-carbazole]",Effect of simultaneous PKC and IP3R/Ca2+ block on PGE2-mediated suppression of Kir2.1 currents,Kir2.1 channel [3],lack of an effect
same,Effect on peak Kir2.1 current densities at -140 mV,Kir2.1 channel [3]; [5],absence of an effect
same,Effect on PGE2-induced reduction of Kir2.1 current,Kir2.1 channel [3]; dialyzed cECs,no effect
same,Effect on Mg-ATP-mediated maintenance of Kir2.1 currents over 15 min,Kir2.1 channel [3]; [6],unaltered
[Ba+2] [Ba^2+],Effect on CBF responses to whisker stimulation,"functional hyperemia; 100 μM Ba2+, TgNotch3^R169C mice",had no effect
same,Decrease of functional hyperemia,"functional hyperemia; 100 μM Ba2+, TgNotch3^WT mice",60%
same,HB-EGF-mediated increase in functional hyperemia,"functional hyperemia; Ba2+ in presence of HB-EGF, CADASIL mice",inhibited
same,"Inwardly rectifying Kir2.1 currents, block",Kir2.1 channel [3],abolished
same,K+-induced upstream vasodilation,"[2]; Ba2+, TgNotch3^R169C, Timp3^+/- mice",completely abolished
SLIGRL-NH2,Effect on capillary Kir2.1 currents,"Kir2.1 channel [3]; perforated patch, 15 min, SLIGRL-NH2 5 μM",had no effect
O=c1c2nc(Br)n([C@@H]3O[C@@H]4CO[P@@](O)(=S)O[C@H]4[C@H]3O)c2nc2[nH]c(-c3ccccc3)cn12 [Rp-8-Br-PET-cGMPS],Effect on Mg-ATP-mediated maintenance of Kir2.1 currents over 15 min,Kir2.1 channel [3],unaltered
same,Effect on peak Kir2.1 current densities at -140 mV,Kir2.1 channel [3],absence of an effect
Nc1nc2c(ncn2[C@@H]2O[C@H](COP(=O)(O)OP(=O)(O)OP(=O)(O)O)[C@@H](O)[C@H]2O)c(=O)[nH]1 [Na-GTP],Effect on peak Kir2.1 current amplitude or kinetics of current decline,Kir2.1 channel [3]; 100 μM Na-GTP in pipette alone or with 1 mM Mg-ATP,in neither setting did Na-GTP have an effect
Nc1ncnc2c1ncn2[C@@H]1O[C@H](COP(=O)(O)OP(=O)(O)OP(O)(O)=S)[C@@H](O)[C@H]1O [Mg-ATP-γ-S],Decline of Kir2.1 currents over 15 min,Kir2.1 channel [3]; [7],failed to avert current decay
COc1ccc([C@@H]2Sc3ccccc3N(CCN(C)C)C(=O)[C@@H]2OC(C)=O)cc1 [diltiazem],Arteriolar diameter and capillary RBC flux (maximal response),[4],dramatically dilated arterioles and enhanced capillary RBC flux
CC(C)Oc1ccc2c(=O)c3cc(C(=O)O)ccc3oc2c1 [AH6809],Effect on inhibitory effect of PGE2 on Kir2.1 currents,Kir2.1 channel [3],prevented
"NC(=O)c1nc(Nc2ccccc2)sc1NC(=O)C1CCCCC1 [UNC3230, 5-[(Cyclohexylcarbonyl)amino]-2-(phenylamino)-thiazolecarboxamide]",Kir2.1 currents 15 min after PIP2 synthesis inhibitor,"Kir2.1 channel [3]; perforated-patch (intact cytoplasm), PIK93 300 nM, phenylarsine oxide 10 μM, UNC3230 100 nM, bath-applied",yielded similar results
"CCCCCCCC(=O)OCC(COP(=O)(O)OC1C(O)C(O)C(OP(=O)(O)O)C(OP(=O)(O)O)C1O)OC(=O)CCCCCCC (stereo not drawn) [diC8-PIP2, 1,2-Dioctanoyl phosphatidylinositol 4,5-bisphosphate sodium salt]",Initial Kir2.1 currents (at t0),"Kir2.1 channel [3]; conventional whole-cell, 0 mM Mg-ATP + 10 μM diC8-PIP2 in pipette",did not elevate initial Kir2.1 currents
same,Decline of Kir2.1 currents over 15 min,Kir2.1 channel [3]; [7],largely abrogated the decline in Kir2.1 currents
same,Effect on PGE2-induced reduction of Kir2.1 current,Kir2.1 channel [3]; dialyzed cECs,completely abrogated
B1,Arteriolar vasodilation induced by capillary stimulation with 10 mM K+,"[2]; TgNotch3^WT CaPA, bath 8 nM soluble recombinant TIMP3","gradually attenuated and, ultimately, abolished"
